molecular target: T1, Met kinase (Homo sapiens, UniProt P08581); test: Met kinase inhibition (enzyme assay), flashplate method; type: biochemical
T1 construct: 6His (N); purchased Upstate 14-526; host or cells: Sf21 insect cells (S. frugiperda), baculovirus
From the text: According to the manufacturer's data (Met, active, Upstate, catalogue No. 14-526), Met kinase is expressed for the purposes of protein production in insect cells (Sf21; S. frugiperda) and subsequent affinity-chromatographic purification as “N-terminal 6His-tagged” recombinant human protein in a baculovirus expression vector.
Flashplate Method (Met Kinase)
The test plates used are 96-well Flashplate^R microtitre plates from Perkin Elmer (Cat. No. SMP200). The components of the kinase reaction described below are pipetted into the assay plate. The Met kinase and the substrate poly Ala-Glu-Lys-Tyr, (pAGLT, 6:2:5:1), are incubated for 3 hrs at room temperature with radioactively labelled ^33P-ATP in the presence and absence of test substances in a total volume of 100 μl. The reaction is terminated using 150 μl of a 60 mM EDTA solution. After incubation for a further 30 min at room temperature, the supernatants are filtered off with suction, and the wells are washed three times with 200 μl of 0.9% NaCl solution each time. The measurement of the bound radioactivity is carried out by means of a scintillation measuring instrument (Topcount NXT, Perkin-Elmer).
The full value used is the inhibitor-free kinase reaction. This should be approximately in the range 6000-9000 cpm. The pharmacological zero value used is staurosporin in a final concentration of 0.1 mM. The inhibitory values (IC50) are determined using the RS1_MTS program.
Kinase reaction conditions per well: • 30 μl of assay buffer • 10 μl of substance to be tested in assay buffer with 10% of DMSO • 10 μl of ATP (final concentration 1 μM cold, 0.35 μCi of ^33P-ATP) • 50 μl of Met kinase/substrate mixture in assay buffer; • (10 ng of enzyme/well, 50 ng of pAGLT/well)
Solutions Used: • Assay buffer: • 50 mM HEPES • 3 mM magnesium chloride • 3 μM sodium orthovanadate • 3 mM manganese(II) chloride • 1 mM dithiothreitol (DTT) • pH=7.5 (to be set using sodium hydroxide) • Stop solution: • 60 mM Titriplex III (EDTA) • ^33P-ATP: Perkin-Elmer; • Met kinase: Upstate, Cat. No. 14-526, Stock 1 μg/10 μl; spec. activity 954 U/mg; • Poly-Ala-Glu-Lys-Tyr, 6:2:5:1: Sigma Cat. No. P1152

T1 sequence (P08581 25-1390): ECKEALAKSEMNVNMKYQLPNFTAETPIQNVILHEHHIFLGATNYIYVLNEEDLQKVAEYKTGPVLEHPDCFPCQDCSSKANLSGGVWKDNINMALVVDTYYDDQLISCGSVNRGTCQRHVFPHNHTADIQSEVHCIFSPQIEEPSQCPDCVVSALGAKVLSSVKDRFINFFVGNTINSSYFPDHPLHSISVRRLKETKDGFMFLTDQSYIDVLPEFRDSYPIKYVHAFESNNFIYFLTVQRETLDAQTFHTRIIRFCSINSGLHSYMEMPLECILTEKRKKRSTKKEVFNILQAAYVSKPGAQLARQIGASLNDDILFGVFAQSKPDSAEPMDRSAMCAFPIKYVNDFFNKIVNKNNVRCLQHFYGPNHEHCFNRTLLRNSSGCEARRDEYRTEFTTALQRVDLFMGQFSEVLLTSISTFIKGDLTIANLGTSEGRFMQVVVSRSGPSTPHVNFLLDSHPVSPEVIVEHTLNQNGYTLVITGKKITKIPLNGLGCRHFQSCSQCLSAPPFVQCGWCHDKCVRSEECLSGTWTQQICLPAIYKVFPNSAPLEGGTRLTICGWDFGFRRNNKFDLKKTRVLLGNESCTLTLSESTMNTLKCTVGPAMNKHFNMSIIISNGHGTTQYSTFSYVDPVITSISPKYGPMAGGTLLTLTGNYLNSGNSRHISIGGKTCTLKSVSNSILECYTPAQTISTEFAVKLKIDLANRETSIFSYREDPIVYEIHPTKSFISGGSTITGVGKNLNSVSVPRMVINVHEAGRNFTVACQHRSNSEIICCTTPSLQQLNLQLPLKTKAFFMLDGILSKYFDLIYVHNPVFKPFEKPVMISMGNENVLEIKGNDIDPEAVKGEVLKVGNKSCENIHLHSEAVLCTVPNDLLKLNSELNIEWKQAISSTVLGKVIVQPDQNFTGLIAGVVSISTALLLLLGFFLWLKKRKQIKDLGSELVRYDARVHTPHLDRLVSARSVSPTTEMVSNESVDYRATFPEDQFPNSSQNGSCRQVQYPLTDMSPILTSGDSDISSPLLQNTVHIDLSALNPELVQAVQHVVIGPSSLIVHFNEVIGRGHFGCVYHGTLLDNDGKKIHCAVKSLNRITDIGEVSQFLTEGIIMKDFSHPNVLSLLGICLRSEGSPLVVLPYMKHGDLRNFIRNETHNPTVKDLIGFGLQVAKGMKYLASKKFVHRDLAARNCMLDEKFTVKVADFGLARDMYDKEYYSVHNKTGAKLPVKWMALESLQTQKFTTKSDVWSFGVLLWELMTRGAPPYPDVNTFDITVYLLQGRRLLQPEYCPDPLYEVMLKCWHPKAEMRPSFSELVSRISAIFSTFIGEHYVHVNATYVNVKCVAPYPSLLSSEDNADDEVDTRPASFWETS

For `O=c1sc2ccc(Br)cc2n1Cc1cccc(-c2ncc(OCCN3CCOCC3)cn2)c1` [Compound A4, 5-Bromo-3-{3-[5-(2-morpholin-4-ylethoxy)pyrimidin-2-yl]benzyl}-3H-benzothiazol-2-one], which IC50 is on record?
Its IC50 is 10 to 1000 nM.

`O=c1sc2ccc(C(F)(F)F)cc2n1Cc1cccc(-c2ncc(OCCN3CCOCC3)cn2)c1` [Compound A1, 3-{3-[5-(2-morpholin-4-ylethoxy)pyrimidin-2-yl]benzyl}-5-trifluoromethyl-3H-benzothiazol-2-one] was tested. Which IC50 did it give?
The IC50 was 10 to 1000 nM.

Which IC50 does the source give for `Cn1cc(-c2ccc3sc(=O)n(Cc4cccc(-c5ncc(OCCN6CCOCC6)cn5)c4)c3c2)cn1` [Compound A10, 5-(1-methyl-1H-pyrazol-4-yl)-3-{3-[5-(2-morpholin-4-ylethoxy)pyrimidin-2-yl]benzyl}-3H-benzothiazol-2-one] here?
The IC50 was 10 to 1000 nM.

With `O=c1sc2ccc(Cl)cc2n1Cc1cccc(-c2ncc(OCCN3CCOCC3)cn2)c1` [Compound A2, 5-Chloro-3-{3-[5-(2-morpholin-4-ylethoxy)pyrimidin-2-yl]benzyl}-3H-benzothiazol-2-one] as the compound, how does the IC50 read?
The IC50 was 10 to 1000 nM.

`CCC(=O)c1ccc2c(c1)sc(=O)n2Cc1cccc(-c2ncc(OCCN3CCOCC3)cn2)c1` [Compound A3a, 3-{3-[5-(2-Morpholin-4-ylethoxy)pyrimidin-2-yl]benzyl}-6-propionyl-3H-benzothiazol-2-one] was tested. Which IC50 did it give?
The IC50 was 10 to 1000 nM.

Which IC50 does the source give for `CN1CCN(CCCOC(=O)Nc2cccc(Cn3c(=O)sc4ccc(Cl)cc43)c2)CC1` [Compound A13, 3-(4-methylpiperazin-1-yl)propyl [3-(5-chloro-2-oxobenzothiazol-3-ylmethyl)phenyl]carbamate] here?
Its IC50 is 10 to 1000 nM.

`CN1CCC(COc2cnc(-c3cccc(Cn4c(=O)sc5ccc(C(F)(F)F)cc54)c3)nc2)CC1` [Compound A6, 3-{3-[5-(1-Methylpiperidin-4-ylmethoxy)pyrimidin-2-yl]benzyl}-5-trifluoromethyl-3H-benzothiazol-2-one] was tested. Which IC50 did it give?
Its IC50 is 10 to 1000 nM.

For `O=c1sc2ccc(C(F)(F)F)cc2n1Cc1cccc(-c2ncc(OCC3CCNCC3)cn2)c1` [Compound A8, 3-{3-[5-(piperidin-4-ylmethoxy)pyrimidin-2-yl]benzyl}-5-trifluoromethyl-3H-benzothiazol-2-one], which IC50 is on record?
The IC50 was 10 to 1000 nM.

How did the IC50 turn out when `CN(C)CCCOc1cnc(-c2cccc(Cn3c(=O)sc4ccc(C(F)(F)F)cc43)c2)nc1` [Compound A5, 3-{3-[5-(3-dimethylaminopropoxy)pyrimidin-2-yl]benzyl}-5-trifluoromethyl-3H-benzothiazol-2-one] was run?
Its IC50 is 10 to 1000 nM.

How did the IC50 turn out when `CN1CCN(c2cnc(-c3cccc(Cn4c(=O)sc5ccc(C(F)(F)F)cc54)c3)nc2)CC1` [Compound A11, 3-{3-[5-(4-methylpiperazin-1-yl)pyrimidin-2-yl]benzyl}-5-trifluoromethyl-3H-benzothiazol-2-one] was run?
The IC50 was 10 to 1000 nM.

Which IC50 does the source give for `CC(=O)c1ccc2c(c1)sc(=O)n2Cc1cccc(-c2ncc(OCCN3CCOCC3)cn2)c1` [Compound A3, 6-Acetyl-3-{3-[5-(2-morpholin-4-ylethoxy)pyrimidin-2-yl]benzyl}-3H-benzothiazol-2-one] here?
Its IC50 is 10 to 1000 nM.

For `O=c1sc2ccc(C(F)(F)F)cc2n1Cc1cccc(-c2ncc(-c3cnn(CCN4CCCC4)c3)cn2)c1` [Compound A9, 3-(3-{5-[1-(2-pyrrolidin-1-ylethyl)-1H-pyrazol-4-yl]pyrimidin-2-yl}benzyl)-5-trifluoromethyl-3H-benzothiazol-2-one], which IC50 is on record?
Its IC50 is 10 to 1000 nM.

`CCOC(=O)Nc1cccc(Cn2c(=O)sc3ccc(Cl)cc32)c1` [Compound A14, ethyl [3-(5-chloro-2-oxobenzothiazol-3-ylmethyl)phenyl]carbamate] was tested. Which IC50 did it give?
Its IC50 is 10 to 1000 nM.

`CC(C)(C)OC(=O)N1CCC(COc2cnc(-c3cccc(Cn4c(=O)sc5ccc(C(F)(F)F)cc54)c3)nc2)CC1` [Compound A7, 3-{3-[5-(1-tert-Butoxycarbonylpiperidin-4-ylmethoxy)pyrimidin-2-yl]-benzyl}-5-trifluoromethyl-3H-benzothiazol-2-one] was tested. Which IC50 did it give?
Its IC50 is 10 to 1000 nM.

`Cc1nc(-c2cccc(Cn3c(=O)sc4ccc(Cl)cc43)c2)no1` [Compound A12, 5-chloro-3-[3-(5-methyl-1,2,4-oxadiazol-3-yl)benzyl]-3H-benzothiazol-2-one] was tested. Which IC50 did it give?
The IC50 was 10 to 1000 nM.

From patent US8877751B2, “Benzothiazolone derivatives” (Merck Patent GmbH, priority 2009, dated 2014)
